Source: patent US12522612B2, “PDE4 inhibitors, pharmaceutical compositions, and therapeutic applications” (BioTheryX, Inc., priority 2019, dated 2026)

Tested on: TNF-α
Experiment: Cell-based TNF-α inhibition assay in LPS-induced PBMCs (Meso Scale)
Details: PBMC, PBMCs pretreated 1 h, LPS 100 ng/mL 18-24 h, relative to stimulated DMSO control; for inhibition at 0.1 µM: compound concentration 0.1 μM; for inhibition at 1 µM: compound concentration 1 μM
Procedure: Frozen primary blood mononuclear cells (PBMCs) were quick thawed, washed once with RPMI 1640 media supplemented with 10% fetal bovine serum, 1% penicillin, and 1% streptomycin, and plated in a 96 well plate at 200,000 cells per well. The cells were pretreated with DMSO only as a control or a compound for 1 h, and then induced with LPS (lipopolysaccharide) (100 ng/mL) for 18-24 h. The supernatant was analyzed for TNF-α using the Meso Scale assay. Compound activity was determined as a percentage of the stimulated DMSO control. The results are summarized in Table 1, where A represents a percent inhibition value ≥60%; B represents a percent inhibition value <60% and ≥40%; C represents a percent inhibition value <40% and >20%; and D represents a single percent inhibition value <20%.

Row | Structure (SMILES) | inhibition at 0.1 µM | inhibition at 1 µM
1 | CCOc1cc([C@@H](CS(C)(=O)=O)N2Cc3c(csc3NC(=O)C(F)(F)F)C2=O)ccc1OC [Compound A1, (S)—N-(5-(1-(3-ethoxy-4-methoxyphenyl)-2-(methylsulfonyl)ethyl)-4-oxo-5,6-dihydro-4H-thieno[3,4-c]pyrrol-1-yl)-2,2,2-trifluoroacetamide] | < 20% | 40 to 60%
2 | CCOc1cc([C@@H](CS(C)(=O)=O)N2Cc3c(NC(=O)COC)csc3C2=O)ccc1OC [Compound A2, (S)—N-(5-(1-(3-ethoxy-4-methoxyphenyl)-2-(methylsulfonyl)ethyl)-6-oxo-5,6-dihydro-4H-thieno[2,3-c]pyrrol-3-yl)-2-methoxyacetamide] | 20 to 40% | 20 to 40%
3 | CCOc1cc([C@@H](CS(C)(=O)=O)N2Cc3c(NC(=O)C4CC4)csc3C2=O)ccc1OC [Compound A3, (S)—N-(5-(1-(3-ethoxy-4-methoxyphenyl)-2-(methylsulfonyl)ethyl)-6-oxo-5,6-dihydro-4H-thieno[2,3-c]pyrrol-3-yl)cyclopropanecarboxamide] | 20 to 40% | 20 to 40%
4 | COc1ccc([C@@H](CS(C)(=O)=O)N2C(=O)c3csc(NC(C)=O)c3C2=O)cc1OC1CC1 [Compound A4, (S)—N-(5-(1-(3-cyclopropoxy-4-methoxyphenyl)-2-(methylsulfonyl)ethyl)-4,6-dioxo-5,6-dihydro-4H-thieno[3,4-c]pyrrol-1-yl)acetamide] | 40 to 60% | ≥ 60%
5 | COc1ccc([C@H](CS(C)(=O)=O)N2C(=O)c3csc(NC(C)=O)c3C2=O)cc1OC1CC1 [Compound A5, (R)—N-(5-(1-(3-cyclopropoxy-4-methoxyphenyl)-2-(methylsulfonyl)ethyl)-4,6-dioxo-5,6-dihydro-4H-thieno[3,4-c]pyrrol-1-yl)acetamide] | < 20% | 20 to 40%
6 | CCOc1cc([C@@H](CS(=O)(=O)C2CC2)N2C(=O)c3csc(NC(C)=O)c3C2=O)ccc1OC [Compound A6, (S)—N-(5-(2-(cyclopropylsulfonyl)-1-(3-ethoxy-4-methoxyphenyl)ethyl)-4,6-dioxo-5,6-dihydro-4H-thieno[3,4-c]pyrrol-1-yl)acetamide] | < 20% | 20 to 40%
7 | CCOc1cc([C@@H](CS(=O)(=O)C2CC2)N2C(=O)c3csc(NC(=O)C(F)(F)F)c3C2=O)ccc1OC [Compound A7, (S)—N-(5-(2-(cyclopropylsulfonyl)-1-(3-ethoxy-4-methoxyphenyl)ethyl)-4,6-dioxo-5,6-dihydro-4H-thieno[3,4-c]pyrrol-1-yl)-2,2,2-trifluoroacetamide] | < 20% | < 20%
8 | CCOc1cc([C@H](CS(=O)(=O)C2CC2)N2C(=O)c3csc(NC(=O)C(F)(F)F)c3C2=O)ccc1OC [Compound A8, (R)—N-(5-(2-(cyclopropylsulfonyl)-1-(3-ethoxy-4-methoxyphenyl)ethyl)-4,6-dioxo-5,6-dihydro-4H-thieno[3,4-c]pyrrol-1-yl)-2,2,2-trifluoroacetamide] | < 20% | < 20%
9 | CCOc1cc([C@H](CS(=O)(=O)C2CC2)N2C(=O)c3csc(NC(=O)COC)c3C2=O)ccc1OC [Compound A9, (R)—N-(5-(2-(cyclopropylsulfonyl)-1-(3-ethoxy-4-methoxyphenyl)ethyl)-4,6-dioxo-5,6-dihydro-4H-thieno[3,4-c]pyrrol-1-yl)-2-methoxyacetamide] | 40 to 60% | ≥ 60%
10 | CCOc1cc([C@H](CS(=O)(=O)C2CC2)N2C(=O)c3csc(NC(C)=O)c3C2=O)ccc1OC [Compound A10, (R)—N-(5-(2-(cyclopropylsulfonyl)-1-(3-ethoxy-4-methoxyphenyl)ethyl)-4,6-dioxo-5,6-dihydro-4H-thieno[3,4-c]pyrrol-1-yl)acetamide] | < 20% | ≥ 60%
